Patent US20240327364A1, “THERAPEUTIC TARGETING OF GPR68 TO INDUCE FERROPTOSIS” (University Of Maryland, Baltimore, priority 2023, published 2024)

Key:
AKT1 = target: T1, AKT1 (Homo sapiens, UniProt P31749); test: KinomeScan; type: binding; settings: read-out: % Control
T1 construct: purchased DiscoveRx (Fremont, CA)

CAMK2D = target: T2, CAMK2D (Homo sapiens, UniProt Q13557); test: KinomeScan; type: binding; settings: read-out: % Control
T2 construct: purchased DiscoveRx (KinomeScan service)

CASK = target: T3, CASK (Homo sapiens, UniProt O14936); test: KinomeScan; type: binding; settings: read-out: % Control
T3 construct: purchased DiscoveRx (KinomeScan service)

CDK2 = target: T4, CDK2 (Homo sapiens, UniProt P24941); test: KinomeScan; type: binding; settings: read-out: % Control
T4 construct: purchased DiscoveRx (KinomeScan service)

CSNK1G2 = CSNK1G2 (Homo sapiens, UniProt P78368); test: KinomeScan; type: binding; settings: read-out: % Control
DYRK2 = target: T5, DYRK2 (Homo sapiens, UniProt Q92630); test: KinomeScan; type: binding; settings: read-out: % Control
T5 construct: purchased DiscoveRx (Fremont, CA), KinomeScan service

EGFR(L858R) = target: T6, EGFR(L858R) (Homo sapiens, UniProt P00533, L858R); test: KinomeScan; type: binding; settings: read-out: % Control
T6 construct: purchased DiscoveRx (Fremont, CA), KinomeScan service

EGFR(L858R, T790M) = target: T7, EGFR(L858R, T790M) (Homo sapiens, UniProt P00533, L858R/T790M); test: KinomeScan; type: binding; settings: read-out: % Control
T7 construct: purchased DiscoveRx (Fremont, CA), KinomeScan service

EPHA4 = target: T8, EPHA4 (Homo sapiens, UniProt P54764); test: KinomeScan; type: binding; settings: read-out: % Control
T8 construct: purchased DiscoveRx (Fremont, CA)

ERK4 = target: T9, ERK4 (Homo sapiens, UniProt P31152); test: KinomeScan; type: binding; settings: read-out: % Control
T9 construct: purchased DiscoveRx (Fremont, CA)

ERK8 = target: T10, ERK8 (Homo sapiens, UniProt Q8TD08); test: KinomeScan; type: binding; settings: read-out: % Control
T10 construct: purchased DiscoveRx (Fremont, CA)

FRK = target: T11, FRK (Homo sapiens, UniProt P42685); test: KinomeScan; type: binding; settings: read-out: % Control
T11 construct: purchased DiscoveRx (Fremont, CA)

GRK1 = target: T12, GRK1 (Homo sapiens, UniProt Q15835); test: KinomeScan; type: binding; settings: read-out: % Control
T12 construct: purchased DiscoveRx (Fremont, CA)

LYN = target: T13, LYN (Homo sapiens, UniProt P07948); test: KinomeScan; type: binding; settings: read-out: % Control
T13 construct: purchased DiscoveRx

MAP4K4 = target: T14, MAP4K4 (Homo sapiens, UniProt O95819); test: KinomeScan; type: binding; settings: read-out: % Control
T14 construct: purchased DiscoveRx (Fremont, CA)

MET = target: T15, MET (Homo sapiens, UniProt P08581); test: KinomeScan; type: binding; settings: read-out: % Control
T15 construct: purchased DiscoveRx (Fremont, CA)

MLK3 = target: T16, MLK3 (Homo sapiens, UniProt Q16584); test: KinomeScan; type: binding; settings: read-out: % Control
T16 construct: purchased DiscoveRx

PIK4CB = target: T17, PIK4CB (Homo sapiens, UniProt Q9UBF8); test: KinomeScan; type: binding; settings: read-out: % Control
T17 construct: purchased DiscoveRx (Fremont, CA)

PIM3 = target: T18, PIM3 (Homo sapiens, UniProt Q86V86); test: KinomeScan; type: binding; settings: read-out: % Control
T18 construct: purchased DiscoveRx (Fremont, CA)

PKMYT1 = target: T19, PKMYT1 (Homo sapiens, UniProt Q99640); test: KinomeScan; type: binding; settings: read-out: % Control
T19 construct: purchased DiscoveRx (Fremont, CA)

PRKD2 = target: T20, PRKD2 (Homo sapiens, UniProt Q9BZL6); test: KinomeScan; type: binding; settings: read-out: % Control
T20 construct: purchased DiscoveRx (Fremont, CA)

PRKR = target: T21, PRKR (Homo sapiens, UniProt P19525); test: KinomeScan; type: binding; settings: read-out: % Control
T21 construct: purchased DiscoveRx (Fremont, CA)

ROCK1 = target: T22, ROCK1 (Homo sapiens, UniProt Q13464); test: KinomeScan; type: binding; settings: read-out: % Control
T22 construct: purchased DiscoveRx (Fremont, CA)

[1] = target: T23, RPS6KA4(Kin.Dom.1-N-terminal) (Homo sapiens, UniProt O75676); test: KinomeScan; type: binding; settings: read-out: % Control
T23 construct: RPS6KA4(Kin.Dom.1-N-terminal); purchased DiscoveRx (Fremont, CA)

SNARK = target: T24, SNARK (Homo sapiens, UniProt Q9H093); test: KinomeScan; type: binding; settings: read-out: % Control
T24 construct: purchased DiscoveRx (Fremont, CA)

TAK1 = target: T25, TAK1 (Homo sapiens, UniProt O43318); test: KinomeScan; type: binding; settings: read-out: % Control
T25 construct: purchased DiscoveRx (Fremont, CA)

TTK = target: T26, TTK (Homo sapiens, UniProt P33981); test: KinomeScan; type: binding; settings: read-out: % Control
T26 construct: purchased DiscoveRx

VEGFR2 = target: T27, VEGFR2 (Homo sapiens, UniProt P35968); test: KinomeScan; type: binding; settings: read-out: % Control
T27 construct: purchased DiscoveRx

5-HT2C = target: T28, 5-HT2C (Homo sapiens, UniProt P28335); test: GPCR Profiler; type: cell-based
T28 construct: host or cells: Chem-1 cells with promiscuous Gα15

BB3 = target: T29, BB3 (Homo sapiens, UniProt P32247); test: GPCR Profiler; type: cell-based
T29 construct: host or cells: Chem-1 cells with promiscuous Gα15

CaS = target: T30, CaS (Homo sapiens, UniProt P41180); test: GPCR Profiler; type: cell-based
T30 construct: host or cells: Chem-1 cells with promiscuous Gα15

CCR2B = target: T31, CCR2B (Homo sapiens, UniProt P41597); test: GPCR Profiler; type: cell-based
T31 construct: host or cells: Chem-1 cells with Gα15

H3 = target: T32, H3 (Homo sapiens, UniProt Q9Y5N1); test: GPCR Profiler; type: cell-based
T32 construct: host or cells: Chem-1 cells with promiscuous Gα15

MC2 = target: T33, MC2 (Homo sapiens, UniProt Q01718); test: GPCR Profiler; type: cell-based
T33 construct: host or cells: Chem-1 cells with promiscuous Gα15

NK2 = target: T34, NK2 (Homo sapiens, UniProt P21452); test: GPCR Profiler; type: cell-based
T34 construct: host or cells: Chem-1 cells expressing Gα15

sst4 = target: T35, sst4 (Homo sapiens, UniProt P31391); test: GPCR Profiler; type: cell-based
T35 construct: host or cells: Chem-1 cells with Gα15

Thrombin Activated PARs = test: GPCR Profiler; type: cell-based

T28 sequence (P28335 33-458): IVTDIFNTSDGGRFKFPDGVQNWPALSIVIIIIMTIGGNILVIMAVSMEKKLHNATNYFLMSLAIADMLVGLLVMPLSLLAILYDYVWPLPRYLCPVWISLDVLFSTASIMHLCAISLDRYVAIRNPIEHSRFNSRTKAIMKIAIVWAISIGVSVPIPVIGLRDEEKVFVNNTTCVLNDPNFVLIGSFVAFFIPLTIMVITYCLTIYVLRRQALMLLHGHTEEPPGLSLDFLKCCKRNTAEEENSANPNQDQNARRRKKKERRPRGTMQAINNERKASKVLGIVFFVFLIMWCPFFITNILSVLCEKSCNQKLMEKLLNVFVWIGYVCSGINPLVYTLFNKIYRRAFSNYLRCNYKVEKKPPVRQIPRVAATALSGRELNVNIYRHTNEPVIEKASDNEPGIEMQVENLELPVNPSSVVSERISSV
T30 sequence (P41180 20-1078): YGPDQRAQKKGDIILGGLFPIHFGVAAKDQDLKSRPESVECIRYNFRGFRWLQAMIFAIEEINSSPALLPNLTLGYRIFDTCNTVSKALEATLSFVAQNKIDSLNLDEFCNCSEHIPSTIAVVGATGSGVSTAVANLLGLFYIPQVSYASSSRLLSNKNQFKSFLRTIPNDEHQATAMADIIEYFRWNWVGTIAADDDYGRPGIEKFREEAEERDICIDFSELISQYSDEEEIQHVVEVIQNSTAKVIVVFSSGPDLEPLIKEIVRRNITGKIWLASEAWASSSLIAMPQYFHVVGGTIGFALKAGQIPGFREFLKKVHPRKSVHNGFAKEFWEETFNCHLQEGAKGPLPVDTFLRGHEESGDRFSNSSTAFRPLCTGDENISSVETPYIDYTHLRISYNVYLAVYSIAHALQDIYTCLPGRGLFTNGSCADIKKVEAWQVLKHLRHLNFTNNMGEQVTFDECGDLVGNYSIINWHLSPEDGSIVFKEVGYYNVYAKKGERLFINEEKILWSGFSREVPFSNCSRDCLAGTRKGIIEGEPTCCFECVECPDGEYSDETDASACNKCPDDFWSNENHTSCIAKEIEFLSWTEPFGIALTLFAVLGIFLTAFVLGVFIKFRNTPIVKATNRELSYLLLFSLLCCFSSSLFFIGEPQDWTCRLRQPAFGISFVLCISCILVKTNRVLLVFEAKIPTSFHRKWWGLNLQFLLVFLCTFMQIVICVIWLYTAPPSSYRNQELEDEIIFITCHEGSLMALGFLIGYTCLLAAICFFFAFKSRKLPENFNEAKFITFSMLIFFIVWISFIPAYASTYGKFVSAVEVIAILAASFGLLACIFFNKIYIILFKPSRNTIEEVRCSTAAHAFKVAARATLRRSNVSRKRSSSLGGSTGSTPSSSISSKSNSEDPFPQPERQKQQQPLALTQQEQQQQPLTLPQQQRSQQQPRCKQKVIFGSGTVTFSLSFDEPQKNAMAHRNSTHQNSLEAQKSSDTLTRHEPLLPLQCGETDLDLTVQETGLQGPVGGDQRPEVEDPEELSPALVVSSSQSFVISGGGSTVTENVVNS
T32 sequence (Q9Y5N1 whole entry): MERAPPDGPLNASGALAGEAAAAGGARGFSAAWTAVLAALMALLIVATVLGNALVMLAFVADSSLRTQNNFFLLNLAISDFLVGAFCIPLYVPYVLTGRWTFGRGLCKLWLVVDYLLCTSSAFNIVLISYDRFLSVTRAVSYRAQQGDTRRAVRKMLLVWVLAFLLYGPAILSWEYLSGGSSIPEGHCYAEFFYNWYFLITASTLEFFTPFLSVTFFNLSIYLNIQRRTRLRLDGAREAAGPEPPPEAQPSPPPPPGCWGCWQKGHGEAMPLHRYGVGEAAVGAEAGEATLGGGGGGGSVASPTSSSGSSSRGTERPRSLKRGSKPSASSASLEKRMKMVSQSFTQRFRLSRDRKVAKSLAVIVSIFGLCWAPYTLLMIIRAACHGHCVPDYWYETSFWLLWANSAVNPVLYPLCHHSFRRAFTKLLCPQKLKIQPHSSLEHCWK
T31 sequence (P41597 1-360 isoform P41597-2): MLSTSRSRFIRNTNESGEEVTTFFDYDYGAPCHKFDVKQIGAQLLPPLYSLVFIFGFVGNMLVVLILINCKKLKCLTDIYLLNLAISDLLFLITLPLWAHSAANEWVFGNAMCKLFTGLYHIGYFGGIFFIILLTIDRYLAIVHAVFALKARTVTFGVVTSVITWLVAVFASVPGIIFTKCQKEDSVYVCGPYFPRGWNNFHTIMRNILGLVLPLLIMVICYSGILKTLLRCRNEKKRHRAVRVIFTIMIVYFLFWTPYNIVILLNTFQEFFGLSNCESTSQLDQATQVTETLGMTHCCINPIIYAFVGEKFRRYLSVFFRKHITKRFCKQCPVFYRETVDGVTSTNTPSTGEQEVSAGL
T34 sequence (P21452 whole entry): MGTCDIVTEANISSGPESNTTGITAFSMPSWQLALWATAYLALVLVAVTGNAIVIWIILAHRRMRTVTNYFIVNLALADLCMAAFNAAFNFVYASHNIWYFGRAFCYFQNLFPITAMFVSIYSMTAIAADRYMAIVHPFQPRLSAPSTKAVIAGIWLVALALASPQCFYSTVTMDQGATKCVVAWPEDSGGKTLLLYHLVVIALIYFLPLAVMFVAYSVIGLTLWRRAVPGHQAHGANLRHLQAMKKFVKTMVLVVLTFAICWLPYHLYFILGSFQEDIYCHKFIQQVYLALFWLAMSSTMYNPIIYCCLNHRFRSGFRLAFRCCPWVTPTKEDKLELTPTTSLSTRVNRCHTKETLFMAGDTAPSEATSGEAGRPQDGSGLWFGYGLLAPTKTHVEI
T33 sequence (Q01718 whole entry): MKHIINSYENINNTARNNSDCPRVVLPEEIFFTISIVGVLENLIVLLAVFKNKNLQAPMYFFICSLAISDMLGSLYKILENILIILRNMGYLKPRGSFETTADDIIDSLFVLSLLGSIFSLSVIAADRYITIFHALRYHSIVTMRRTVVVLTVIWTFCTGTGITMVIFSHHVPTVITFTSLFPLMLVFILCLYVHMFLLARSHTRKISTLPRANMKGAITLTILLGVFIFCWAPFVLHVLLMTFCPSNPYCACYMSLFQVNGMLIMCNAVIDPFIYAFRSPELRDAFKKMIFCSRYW
T33 sequence (Q8TCY5 whole entry partner): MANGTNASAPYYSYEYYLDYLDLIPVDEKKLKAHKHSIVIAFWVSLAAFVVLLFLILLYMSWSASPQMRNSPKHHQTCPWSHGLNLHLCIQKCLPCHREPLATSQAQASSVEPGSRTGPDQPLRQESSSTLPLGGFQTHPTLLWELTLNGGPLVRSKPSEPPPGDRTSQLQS
T29 sequence (P32247 whole entry): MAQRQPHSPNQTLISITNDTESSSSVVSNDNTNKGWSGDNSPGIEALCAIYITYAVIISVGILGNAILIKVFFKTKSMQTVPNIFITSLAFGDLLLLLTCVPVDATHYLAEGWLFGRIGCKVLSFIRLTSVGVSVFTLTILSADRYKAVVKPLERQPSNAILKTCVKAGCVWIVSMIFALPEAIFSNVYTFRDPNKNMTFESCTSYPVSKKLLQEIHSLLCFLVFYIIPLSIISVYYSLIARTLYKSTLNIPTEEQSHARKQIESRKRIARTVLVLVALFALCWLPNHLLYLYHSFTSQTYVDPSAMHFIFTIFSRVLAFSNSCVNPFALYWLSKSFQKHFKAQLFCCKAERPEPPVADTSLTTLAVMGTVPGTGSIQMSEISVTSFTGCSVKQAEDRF
T35 sequence (P31391 whole entry, species assumed): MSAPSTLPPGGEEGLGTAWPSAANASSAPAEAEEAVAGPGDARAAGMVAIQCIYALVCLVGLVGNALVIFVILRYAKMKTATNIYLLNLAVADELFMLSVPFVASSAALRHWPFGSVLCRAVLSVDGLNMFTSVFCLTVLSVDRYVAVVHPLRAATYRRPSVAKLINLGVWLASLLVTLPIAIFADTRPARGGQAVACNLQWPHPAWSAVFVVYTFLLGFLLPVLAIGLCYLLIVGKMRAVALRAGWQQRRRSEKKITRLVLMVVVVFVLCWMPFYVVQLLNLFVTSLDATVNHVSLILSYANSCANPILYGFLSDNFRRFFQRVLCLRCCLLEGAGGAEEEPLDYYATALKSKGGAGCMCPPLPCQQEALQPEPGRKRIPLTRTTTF
T8 sequence (P54764 20-986): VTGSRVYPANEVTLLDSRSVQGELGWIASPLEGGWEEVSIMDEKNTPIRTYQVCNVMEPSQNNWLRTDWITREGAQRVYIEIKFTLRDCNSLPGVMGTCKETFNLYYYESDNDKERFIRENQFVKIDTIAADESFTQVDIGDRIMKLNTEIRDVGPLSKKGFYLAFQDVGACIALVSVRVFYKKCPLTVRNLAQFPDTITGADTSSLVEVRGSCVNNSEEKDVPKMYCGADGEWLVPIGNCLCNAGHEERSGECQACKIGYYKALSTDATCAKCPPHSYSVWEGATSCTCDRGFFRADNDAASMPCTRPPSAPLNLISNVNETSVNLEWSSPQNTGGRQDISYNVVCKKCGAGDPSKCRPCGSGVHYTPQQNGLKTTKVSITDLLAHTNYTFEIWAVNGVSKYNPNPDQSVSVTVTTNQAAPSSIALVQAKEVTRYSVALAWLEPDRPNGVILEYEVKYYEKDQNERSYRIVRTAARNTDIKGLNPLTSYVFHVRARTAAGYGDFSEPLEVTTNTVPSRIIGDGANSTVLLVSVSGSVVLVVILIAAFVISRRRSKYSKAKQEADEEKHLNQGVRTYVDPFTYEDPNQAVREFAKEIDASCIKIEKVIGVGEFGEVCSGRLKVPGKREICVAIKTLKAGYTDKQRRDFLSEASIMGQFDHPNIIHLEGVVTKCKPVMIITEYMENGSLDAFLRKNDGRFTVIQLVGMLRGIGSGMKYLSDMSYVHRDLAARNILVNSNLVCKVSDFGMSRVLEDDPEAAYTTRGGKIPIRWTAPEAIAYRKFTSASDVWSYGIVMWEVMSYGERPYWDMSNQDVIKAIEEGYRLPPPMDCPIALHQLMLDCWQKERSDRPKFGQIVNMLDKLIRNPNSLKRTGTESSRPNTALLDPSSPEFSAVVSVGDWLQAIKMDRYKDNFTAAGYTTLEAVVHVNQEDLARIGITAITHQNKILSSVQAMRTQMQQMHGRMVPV

With CCc1ccc2c(c1)C1(NN=C(c3cccc4ccccc34)S1)C(=O)N2 (stereo not shown) [OGM1, 5-ethyl-5′-naphthalen-1-ylspiro[1H-indole-3,2′-3H-1,3,4-thiadiazole]-2-one] the remaining binding at 10 µM (AKT1) was 78%, the remaining binding at 10 µM (CAMK2D) was 91% and the remaining binding at 10 µM (CASK) was 90%. For the same compound, the remaining binding at 10 µM (CDK2) was 100%, the remaining binding at 10 µM (CSNK1G2) was 100% and the remaining binding at 10 µM (DYRK2) was 91%. It also gave a remaining binding at 10 µM (EGFR(L858R)) of 100%, a remaining binding at 10 µM (EGFR(L858R, T790M)) of 89% and a remaining binding at 10 µM (EPHA4) of 100%. For the same compound, the remaining binding at 10 µM (ERK4) was 93%, the remaining binding at 10 µM (ERK8) was 100% and the remaining binding at 10 µM (FRK) was 100%. It also gave a remaining binding at 10 µM (GRK1) of 100%, a remaining binding at 10 µM (LYN) of 100% and a remaining binding at 10 µM (MAP4K4) of 100%. The remaining binding at 10 µM (MET) was 100%, the remaining binding at 10 µM (MLK3) was 100% and the remaining binding at 10 µM (PIK4CB) was 71%. The remaining binding at 10 µM (PIM3) was 73%, the remaining binding at 10 µM (PKMYT1) was 78% and the remaining binding at 10 µM (PRKD2) was 87%. For the same compound, the remaining binding at 10 µM (PRKR) was 59%, the remaining binding at 10 µM (ROCK1) was 71% and the remaining binding at 10 µM [1] was 92%. For the same compound, the remaining binding at 10 µM (SNARK) was 100%, the remaining binding at 10 µM (TAK1) was 72% and the remaining binding at 10 µM (TTK) was 75%. For the same compound, the remaining binding at 10 µM (VEGFR2) was 100%, the Antagonism (5-HT2C; 10 uM) was −10.9 and the Agonism (5-HT2C; 12.5 uM) was 2.2. It also gave an Antagonism (BB3; 10 uM) of −0.7, an Agonism (BB3; 12.5 uM) of 1.3 and an Antagonism (CaS; 10 uM) of −3.6. For the same compound, the Agonism (CaS; 12.5 uM) was −1.2, the Antagonism (CCR2B; 10 uM) was 0.7 and the Agonism (CCR2B; 12.5 uM) was 0.7. The Antagonism (H3; 10 uM) was −3.3, the Agonism (H3; 12.5 uM) was 0.5 and the Antagonism (MC2; 10 uM) was 3.9. For the same compound, the Agonism (MC2; 12.5 uM) was 0.1, the Antagonism (NK2; 10 uM) was 1 and the Agonism (NK2; 12.5 uM) was 0. The Antagonism (sst4; 10 uM) was −2.6, the Agonism (sst4; 12.5 uM) was −1.1 and the Antagonism (Thrombin Activated PARs; 10 uM) was 3.2. For the same compound, the Agonism (Thrombin Activated PARs; 12.5 uM) was 1.
